Laboratory results reported in patent publication US10716790B2, “Method for treating cancer by combined use” (priority 2015, dated 2020).

Tests used:
[1] = test system: human acute myeloid leukemia cell line MOLM-13 cells having a FLT3-ITD mutation and wild-type TP53; assay: In vivo effect of combined use on subcutaneously transplanted MOLM-13 tumors in NOD-SCID mice; settings: oral; for TGI (%): 17 days after tumor inoculation
Description: (§1) Human acute myeloid leukemia cell line MOLM-13 cells having a FLT3-ITD mutation and wild-type TP53 were suspended to 5×10^7 cells/mL using phosphate-buffered saline. 0.1 mL of the prepared cell suspension was subcutaneously transplanted to each NOD-SCID mouse (male, 5 to 7 weeks old). On 6 days after the tumor inoculation, after confirmation that the average tumor volume exceeded 100 mm^3, the mice were randomized (N=6/group) on the basis of their tumor volume values. […] The administration was performed once a day for 5 consecutive days (6 to 10 days after the tumor inoculation) from the date of randomization (6 days after the tumor inoculation), and after a 2-day drug holiday, performed once a day for 4 consecutive days (13 to 16 days after the tumor inoculation). The length (mm) and width (mm) of tumor were measured over time using an electronic digital caliper. Tumor growth inhibition % (TGI %) on the date of assessment (17 days after the tumor inoculation) calculated according to calculation formula (4) shown below was used in evaluation. Also, the body weights were measured over time using an automatic balance for small animals, and body weight change % was calculated according to calculation formula (5) shown below to assess the influence of drug administration on the body weights. In addition, the results of the last body weight measurement were used in dose calculation. TGI (%)=(1−A/B)×100 (4)
A: Average tumor volume of the compound-administered group on the date of assessment (*)
B: Average tumor volume of the untreated control group on the date of assessment (*)
(§2) *: The tumor volume was calculated according to ½×[Major axis of tumor]×[Minor axis of tumor]×[Minor axis of tumor]. Body weight change (%)=Average body weight change % of the individuals Body weight change % of each individual=[…] (5)

[2] = Body weight change of MOLM-13 tumor-bearing NOD-SCID mice under drug administration; type: in vivo, mouse; settings: oral
Description: as §1, §2
BWn: Body weight on day n
BWs: Body weight on the start day of administration

[3] = DS-3032b 25 mg/kg, day 6 after tumor inoculation
[4] = DS-3032b 25 mg/kg, day 8 after tumor inoculation
[5] = DS-3032b 25 mg/kg, day 10 after tumor inoculation
[6] = DS-3032b 25 mg/kg, day 13 after tumor inoculation
[7] = DS-3032b 25 mg/kg, day 15 after tumor inoculation
[8] = DS-3032b 25 mg/kg, day 17 after tumor inoculation
[9] = DS-3032b 50 mg/kg, day 6 after tumor inoculation
[10] = DS-3032b 50 mg/kg, day 8 after tumor inoculation
[11] = DS-3032b 50 mg/kg, day 10 after tumor inoculation
[12] = DS-3032b 50 mg/kg, day 13 after tumor inoculation
[13] = DS-3032b 50 mg/kg, day 15 after tumor inoculation
[14] = DS-3032b 50 mg/kg, day 17 after tumor inoculation

SMILES: CC1(C)CCC2(CC1)N[C@@H](C(=O)N[C@@H]1CC[C@@H](C(N)=O)OC1)[C@H](c1ccnc(Cl)c1F)[C@]21C(=O)Nc2cc(Cl)ccc21.Cc1ccc(S(=O)(=O)O)cc1 [Compound A, (3′R,4′S,5′R)—N-[(3R,6S)-6-carbamoyltetrahydro-2H-pyran-3-yl]-6″-chloro-4′-(2-chloro-3-fluoropyridin-4-yl)-4,4-dimethyl-2″-oxo-1″,2″-dihydrodispiro[cyclohexane-1,2′-pyrrolidine-3′,3″-indole]-5′-carboxamide tosylate]
- TGI (%) ([1]; Compound A 25 mg/kg): 38%
- TGI (%) ([1]; Compound A 50 mg/kg): 82%
- Estimated tumor volume (mm^3), average [1, 3]: 169 mm^3
- Estimated tumor volume (mm^3), average [1, 4]: 266 mm^3
- Estimated tumor volume (mm^3), average [1, 5]: 425 mm^3
- Estimated tumor volume (mm^3), average [1, 6]: 812 mm^3
- Estimated tumor volume (mm^3), average [1, 7]: 983 mm^3
- Estimated tumor volume (mm^3), average [1, 8]: 1661 mm^3
- Estimated tumor volume (mm^3), average [1, 9]: 162 mm^3
- Estimated tumor volume (mm^3), average [1, 10]: 195 mm^3
- Estimated tumor volume (mm^3), average [1, 11]: 210 mm^3
- Estimated tumor volume (mm^3), average [1, 12]: 325 mm^3
- Estimated tumor volume (mm^3), average [1, 13]: 375 mm^3
- Estimated tumor volume (mm^3), average [1, 14]: 467 mm^3
- Body weight change (%), average [2, 3]: 0.0%
- Body weight change (%), average [2, 4]: 2.1%
- Body weight change (%), average [2, 5]: 3.1%
- Body weight change (%), average [2, 6]: 6.4%
- Body weight change (%), average [2, 7]: 8.0%
- Body weight change (%), average [2, 8]: 10.6%
- Body weight change (%), average [2, 9]: 0.0%
- Body weight change (%), average [2, 10]: 1.5%
- Body weight change (%), average [2, 11]: 2.7%
- Body weight change (%), average [2, 12]: 5.5%
- Body weight change (%), average [2, 13]: 6.8%
- Body weight change (%), average [2, 14]: 5.8%

SMILES: CC(C)(C)c1cc(NC(=O)Nc2ccc(-c3cn4c(n3)sc3cc(OCCN5CCOCC5)ccc34)cc2)no1 [Quizartinib, N-(5-tert-butyl-isoxazol-3-yl)-N′-{4-[7-(2-morpholin-4-yl-ethoxy)imidazo[2,1-b][1,3]benzothiazol-2-yl]phenyl}urea, reference compound]
- Body weight change (%), average ([2]; Quizartinib 0.5 mg/kg, day 6 after tumor inoculation): 0.0%
- Body weight change (%), average ([2]; Quizartinib 0.5 mg/kg, day 8 after tumor inoculation): 4.2%
- Body weight change (%), average ([2]; Quizartinib 0.5 mg/kg, day 10 after tumor inoculation): 4.2%
- Body weight change (%), average ([2]; Quizartinib 0.5 mg/kg, day 13 after tumor inoculation): 8.5%
- Body weight change (%), average ([2]; Quizartinib 0.5 mg/kg, day 15 after tumor inoculation): 9.6%
- Body weight change (%), average ([2]; Quizartinib 0.5 mg/kg, day 17 after tumor inoculation): 10.7%
- Body weight change (%), average ([2]; Quizartinib 1 mg/kg, day 6 after tumor inoculation): 0.0%
- Body weight change (%), average ([2]; Quizartinib 1 mg/kg, day 8 after tumor inoculation): 0.2%
- Body weight change (%), average ([2]; Quizartinib 1 mg/kg, day 10 after tumor inoculation): 1.8%
- Body weight change (%), average ([2]; Quizartinib 1 mg/kg, day 13 after tumor inoculation): 4.6%
- Body weight change (%), average ([2]; Quizartinib 1 mg/kg, day 15 after tumor inoculation): 5.1%
- Body weight change (%), average ([2]; Quizartinib 1 mg/kg, day 17 after tumor inoculation): 5.8%
